Test results: patent US8063225B2, “Tricyclic compound derivatives useful in the treatment of neoplastic diseases, inflammatory disorders and immunomodulatory disorders” (Chembridge Corporation, priority 2006, dated 2011)

How the values were obtained:
IGF1 receptor = molecular target: T1, IGF1 receptor (Homo sapiens, UniProt P08069); experiment: ELISA-based assay of IGF1 receptor autophosphorylation inhibition in cells; assay type: cell-based; conditions: IGF1R phosphorylation inhibition in MCF7 cells
T1 construct: MCF7 human breast cancer cells expressing IGF1 receptor; endogenous in cells; host or cells: MCF7 human breast cancer cells
Summary of the method: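 MCF7 cells or NIH 3T3 overexpressing full-length IGF1R, serum-starved overnight, treated with inhibitor 1 h at 37 °C (1% DMSO), then stimulated 10 min with 100 nM IGF-1. Lysates captured on anti-IGF1R-coated plates; receptor phosphotyrosine detected with 4G10-HRP and TMB, absorbance 450 nm.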

Ba/F3 = experiment: Cell proliferation inhibition, Cell Titer-Glo, Ba/F3; assay type: cell-based; conditions: Mus musculus, BaF3; cell proliferation assay, Ba/F3 cells
Summary of the method: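 Ba/F3 cells were seeded at 2500-5000 cells per well in white, clear-bottomed 384-well culture plates and exposed to serial dilutions of test compounds for 3 days. Cell Titer-Glo Luminescent Cell Viability Assay (Promega) reagent, which measures total ATP as an indicator of metabolic activity, was added. Luminescence was read on a multiwell plate reader to derive IC50 values for inhibition of proliferation.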

T1 sequence (P08069 741-1367 limits assumed): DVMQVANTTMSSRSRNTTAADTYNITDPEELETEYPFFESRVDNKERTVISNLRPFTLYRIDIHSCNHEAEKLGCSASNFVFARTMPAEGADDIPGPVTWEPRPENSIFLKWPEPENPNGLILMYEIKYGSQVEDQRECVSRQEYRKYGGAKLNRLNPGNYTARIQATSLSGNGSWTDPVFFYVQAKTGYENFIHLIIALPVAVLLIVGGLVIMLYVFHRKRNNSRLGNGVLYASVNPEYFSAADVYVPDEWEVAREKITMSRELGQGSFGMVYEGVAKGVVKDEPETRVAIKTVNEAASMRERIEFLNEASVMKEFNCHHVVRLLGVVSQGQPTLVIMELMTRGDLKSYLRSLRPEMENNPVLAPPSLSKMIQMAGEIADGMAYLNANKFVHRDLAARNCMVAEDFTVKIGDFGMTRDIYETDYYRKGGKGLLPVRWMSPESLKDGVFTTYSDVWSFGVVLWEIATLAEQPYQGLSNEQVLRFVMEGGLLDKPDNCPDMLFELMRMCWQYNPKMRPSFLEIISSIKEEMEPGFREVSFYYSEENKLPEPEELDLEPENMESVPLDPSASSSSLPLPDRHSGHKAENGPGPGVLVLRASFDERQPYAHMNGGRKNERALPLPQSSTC
T1 sequence (P08069 31-736 partner limits assumed): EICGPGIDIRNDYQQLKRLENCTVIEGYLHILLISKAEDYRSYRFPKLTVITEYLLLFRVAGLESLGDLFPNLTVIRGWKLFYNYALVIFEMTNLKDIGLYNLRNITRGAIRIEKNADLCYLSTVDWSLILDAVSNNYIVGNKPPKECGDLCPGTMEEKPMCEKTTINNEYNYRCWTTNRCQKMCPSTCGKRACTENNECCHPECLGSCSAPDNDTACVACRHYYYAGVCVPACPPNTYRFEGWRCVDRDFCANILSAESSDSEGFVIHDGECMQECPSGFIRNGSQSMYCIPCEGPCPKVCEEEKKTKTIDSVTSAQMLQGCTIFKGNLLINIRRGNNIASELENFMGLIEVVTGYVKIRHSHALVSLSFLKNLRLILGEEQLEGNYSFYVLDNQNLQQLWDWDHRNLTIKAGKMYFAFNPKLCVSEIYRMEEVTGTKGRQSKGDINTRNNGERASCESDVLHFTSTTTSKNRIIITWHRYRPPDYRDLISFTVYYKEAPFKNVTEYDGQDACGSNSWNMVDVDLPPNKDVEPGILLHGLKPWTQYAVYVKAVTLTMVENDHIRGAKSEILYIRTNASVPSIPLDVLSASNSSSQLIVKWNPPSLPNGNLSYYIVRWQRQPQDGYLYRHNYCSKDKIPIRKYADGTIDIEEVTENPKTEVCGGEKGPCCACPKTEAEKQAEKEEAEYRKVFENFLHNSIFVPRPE

IC50 (IGF1 receptor) [µM]	IC50 (Ba/F3) [µM]	Compound
0.5 to 5	> 15	CN1CCC(N2C(=O)c3cc4nc(-c5c(NC[C@@H](O)COc6cccc7ccccc67)cc[nH]c5=O)[nH]c4cc3C2=O)CC1 [compound 87]
0.5 to 5	> 15	Cc1cc(C)n(C[C@H](O)CNc2cc[nH]c(=O)c2-c2nc3cc4c(cc3[nH]2)C(=O)N(C2CCN(C)CC2)C4=O)n1 [compound 92]
